SMILES | melting point
CCOC(=O)C1=Cc2cc(I)ccc2NC1C(F)(F)F (stereo not drawn) | 137 to 138 °C
CS(=O)(=O)c1cc(C=O)cc(O)c1O | 169 to 171 °C
OCc1cn(-c2ccc(Cl)cn2)cn1 | 82 to 87 °C
CCCCCCCCCCCCCCCCC(CO)C(=O)O (stereo not drawn) | 62 to 67 °C
CCCCCCCCC=CCCCCCCCCCCCC(=O)NCCOC(C)=O | 51 °C
CCCCc1c(C(C)C)nc(C(C)C)c(CO)c1-c1ccccc1 | 83 to 84 °C
CCOCCSC(F)(F)C(O)(Cn1cncn1)c1ccc(F)cc1F (stereo not drawn) | 61 to 63 °C
CC1(c2ccc(F)cc2)OC(C=Cc2ccsc2)=CC1=O (stereo not drawn) | 97 to 98 °C
CCCCn1c(O)nc2c(N)ncnc21 | 222 to 224 °C
COC(=O)c1cc2c(cc1O)CCCC2 | 41 to 42 °C
Cc1ccc([N+](=O)[O-])c(CO)c1C | 48 to 51 °C
FC(F)(F)c1nc2ccnc(Cl)n2n1 | 47 to 48 °C
CC(C)(C)c1cc(C2=CCSCC2)c(O)c(C(C)(C)C)c1 | 115 to 119 °C
COc1cc(O)cc(Cc2cnc(N)nc2N)c1 | 246 to 248 °C
CC(C)SCCCCCCCCCCCC(=O)Nc1ccccc1OCCCC(=O)O | 82 to 84 °C
CCc1ccc(OCC2CO2)cc1 (stereo not drawn) | 73.5 to 74.2 °C
CC(=O)CCS(=O)(=O)C(c1ccc(Cl)cc1)c1ccc(Cl)cc1 | 103 to 105 °C
COc1cc(C(N)=O)c([N+](=O)[O-])cc1OC | 197 °C

SMILES | melting point
CC(C)OC(=O)OC1Oc2ccc(OS(=O)(=O)N(C)C)cc2C1(C)C (stereo not drawn) | 95 to 96 °C
O=C(O)CCNC(=O)[C@H](Cc1ccc(-c2ccccc2)cc1)NCP(=O)(Oc1ccccc1)Oc1ccccc1 | 102 °C
CC1(c2cccc(S(N)(=O)=O)c2)OCCO1 | 155 to 157 °C
CC1(C)CC(C2=NN(CC#N)C(=O)N(/N=C/c3cncc(F)c3)C2)=NO1 | 195 to 197 °C
NC(=O)[C@@H]1C[C@H](F)CN1C(=O)CCl | 95 to 96 °C
COc1cc(I)c(I)cc1OC | 134 to 136 °C
Clc1ccc(C2(Cn3cncn3)OCCO2)c(Cl)c1Cl | 181 °C
CCN(CC)OP(=O)(Oc1ccccc1)Oc1ccccc1 | 51 to 53 °C
CS(=O)(=O)Oc1ccccc1S(N)(=O)=O | 131 to 132 °C
CCCCOC(=O)C(NC(=O)c1cc([N+](=O)[O-])cc([N+](=O)[O-])c1)C(C)C (stereo not drawn) | 88 to 91 °C
CCCCN=C(CS(C)=O)c1cc2ccccc2cc1O (stereo not drawn) | 162 to 164 °C
COC(=O)c1cc(-c2nnnn2C)c(C(=O)OC)s1 | 149 to 151 °C
O=S1(=O)c2cccc3cccc(c23)N1CCN1CC=C(c2ccccc2)CC1 | 106 °C
c1nnc2cc3c(cc2c1NCC1CCCO1)OCO3 (stereo not drawn) | 196 to 198 °C
COc1ccc(N2CC(=O)N(C)C(=O)N2)cc1 | 179 to 181 °C
Cc1cc(C(O)(C(F)(F)F)C(F)(F)F)cc(C)c1OCC(N)=O | 180 to 182 °C
CCOP(=O)(OCC)C(Nc1nc2ccccc2s1)P(=O)(OCC)OCC | 165 to 167 °C

Now from value to compound:

melting point | SMILES
186 to 189 °C | CS(=O)(=O)c1ccc(-c2cnn(Cc3ccccc3)c(=O)c2Cc2ccc(F)cc2)cc1
204 °C | O=C(N[C@H]1CC[C@H](CCN2CCN(c3nccc4c3CCO4)CC2)CC1)c1ccc(Cl)cc1Cl
271 to 272 °C | O=C(O)c1cccc(-c2cccc([N+](=O)[O-])c2)c1
223 to 226 °C | CCn1nc(C(F)(F)F)cc1NC(=O)c1c(C)cccc1C(=O)NC(C)C
183 to 185 °C | CC1=C(C(=O)OCCO)C(c2ccccc2OCc2ccccc2)C([N+](=O)[O-])=C(C)N1 (stereo not drawn)
118 to 119 °C | CCOC(=O)c1cnn(-c2ccccc2Oc2ccc(C)cc2O)c1
98 to 100 °C | O=C(CN1CCC(Cc2ccc(F)cc2)CC1)Nc1cccc(NCc2ccccc2)c1
236 to 238 °C | Cc1nc(-c2cccc(C(=O)O)c2)nn1-c1cccc(F)c1
139 to 145 °C | N#CCCNC(=O)c1cccc(-c2ccc3c(c2)C(Oc2ccc(Cl)cc2Cl)CC3)c1 (stereo not drawn)
200 to 201 °C | CC(=O)N1CCN(C2=CC(C)(C)Oc3ccc(C#N)cc32)C1=NC#N
152 to 153 °C | C[C@@H](O)[C@H](NC(=O)c1ccc(F)c(Br)c1)C(=O)NO
248 to 251 °C | COc1cc(OC)c2c(=O)[nH]c(-c3ccc(OC)c(-c4ccc(C(=O)N(C)C)cc4C)n3)nc2c1
201 to 202 °C | CC(=O)OCc1c(Br)cnc2c(NC(=O)c3c(Cl)cccc3Cl)cccc12
163 to 164 °C | Cc1oc(-c2ccc3ccccc3c2)nc1COc1ccc(CCCCC2OC(=O)NC2=O)cc1 (stereo not drawn)
154 to 155 °C | O=C(N[C@H](Cc1ccccc1)[C@H](O)C(=O)O)OCc1ccccc1
186 to 187 °C | COc1ccc(NC(=O)c2cc(-c3ccc(F)cc3F)ccc2O)cc1OC
189 to 192 °C | CC(C)([C@H](NC(=O)OCC1c2ccccc2-c2ccccc21)C(=O)O)S(C)(=O)=O
92 °C | C=CCc1c(C)cc(C)c(C(C)O)c1-c1ccc(F)cc1 (stereo not drawn)
266 to 268 °C | CCOC(=O)c1c2n(c3cc(N4CCN(C(C)=O)CC4)c(Cl)cc3c1=O)CS2

melting point | SMILES
219 °C | COC(=O)CCCc1cc2nc(Cl)ccc2n1S(=O)(=O)c1ccc2snnc2c1
92 to 94 °C | O=C(Nc1ccc(N2CCN(Cc3ccccc3)CC2)c(Cl)c1)c1ccccn1
242 to 244 °C | Cc1nc(-n2ccc(OCc3ccc(OC(F)F)cc3)cc2=O)sc1C(=O)NCc1ccc(F)cc1
188 °C | Cc1c(-c2ccc(OS(=O)(=O)NN(C)C)cc2)[nH]c2nccnc12
122 °C | COc1ccc(OCC2CO2)c(C(=O)Nc2cccc3[nH]ccc23)c1 (stereo not drawn)
130 to 131 °C | Cc1ccc(C2c3c(C)c(N4C(=O)CC(c5ccccc5)C4=O)c(C)c(C)c3OC2(C)C)cc1 (stereo not drawn)
136 to 141 °C | COc1cc2c(c3c1C1CCC3CC1)OC(COS(=O)(=O)c1ccc(C)cc1)C2 (stereo not drawn)
230 to 237 °C | Cc1[nH]c(C(=O)NCCN2CCCCC2)c(C)c1-c1nc2ccc(C(=O)c3ccccc3)cc2[nH]1
79 to 81 °C | Cc1c(C)c2c(c(C)c1OCc1ccccc1)C(c1ccc(C(C)C)cc1)C(C)(C)O2 (stereo not drawn)
192 to 194 °C | CCC(CC)CNc1cccc(-c2ccnc3c(C(=O)c4cccs4)cnn23)c1
178 to 179 °C | O=C(O)Cc1cccc2c(C3CCCCC3)nccc12
93.5 to 95 °C | CNC(=O)N1CC(Oc2cc(C(F)(F)F)ccc2F)C1
133 to 135 °C | O=S(=O)(NN=C(Cl)c1cc(Cl)ccc1Cl)c1ccccc1
> 250 °C | c1ccc2cc(-c3ccc(-c4nc(-c5ccc(-c6ccc7ccccc7c6)cc5)n(-c5cccc6ccccc56)n4)cc3)ccc2c1
165 to 166 °C | FC(F)(F)c1ccc(CC(=Nc2ccccc2)NC(=S)NCc2cccnc2)cc1
53 °C | c1ccc(N=C2CCCc3ccccc32)cc1
279 °C | COc1ccc(N=Nc2ccc(O)c(C(=O)Nc3ccc4cn[nH]c4c3)c2)cc1
210 to 212 °C | COc1ccc2c(c1)c(-c1cc3c(C(=O)NC(C)(C)CO)ccnc3[nH]1)cn2C
214 °C | COc1ccc(Nc2c(N)cc(C(=O)O)cc2S(N)(=O)=O)cc1
